Laboratory results taken from ChEMBL document CHEMBL6096731, “Structure-Guided Optimization and Preclinical Evaluation of 6-O-Benzylguanine-Based Pin1 Inhibitor for Hepatocellular Carcinoma Treatment” (J Med Chem, 2025).
Activity calls are given as the source filed them. The rule behind the calls is not given here.

How the values were obtained:
[1] = biological target: Peptidyl-prolyl cis-trans isomerase NIMA-interacting 1 (Homo sapiens, UniProt Q13526); assay: Inhibition of full length pin1 (unknown origin) expressed in Escherichia coli
Chain of Peptidyl-prolyl cis-trans isomerase NIMA-interacting 1 (Q13526 whole entry): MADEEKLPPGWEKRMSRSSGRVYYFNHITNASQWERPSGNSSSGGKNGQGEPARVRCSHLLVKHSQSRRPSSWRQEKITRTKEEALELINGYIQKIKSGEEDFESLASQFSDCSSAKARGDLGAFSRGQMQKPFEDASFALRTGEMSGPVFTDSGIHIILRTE

[2] = Antiproliferative activity against human HCC cells assessed as cell viability incubated for 72 hrs by alamar blue dye based assay; assay type: toxicity; conditions: for IC50 at 72 h: HCC cells
[3] = tested on: SK-HEP1; assay: Inhibition of colony formation human SK-HEP1 cells at 2.5 uM incubated for 5 days by crystal violet staining based analysis; assay type: functional, cell-based; conditions: time 5.0 day
[4] = tested on: SK-HEP1; assay: Antiproliferative activity human SK-HEP1 cells assessed as cell viability measured up to 120 hrs; assay type: functional, cell-based
[5] = tested on: SK-HEP1; assay: Antiproliferative activity human SK-HEP1 cells assessed as cell viability measured at 96 hrs; assay type: functional, cell-based
[6] = tested on: SK-HEP1; assay: Antiproliferative activity human SK-HEP1 cells assessed as cell viability measured at 120 hrs; assay type: functional, cell-based
[7] = tested on: SK-HEP1; assay: Inhibition of cell migration in human SK-HEP1 cells at 5 uM incubated for 24 hrs by crystal violet staining based microscopic analysis; assay type: functional

For `Nc1nc(SCc2ccccc2)c2[nH]cnc2n1`, the IC50 [1] was 2.06 µM and the IC50 at 72 h [2] was 10.4 µM.

For `CCOC(=O)Cn1cnc2c(OCc3cccc(F)c3)nc(N)nc21`, the IC50 [1] was 8.03 µM and the IC50 at 72 h [2] was over 50 µM.

In the case of `O=C1C=CC(=O)c2c(O)cccc21`, the inhibition [3] is reported as “Active”.

Work on `Cc1ccc(COc2nc(N)nc3[nH]cnc23)cc1C` yielded an IC50 [1] of 0.951 µM and an IC50 at 72 h [2] of 5.3 µM.

`Nc1nc(OCc2cccs2)c2nc[nH]c2n1` showed an IC50 [1] of 7.15 µM and an IC50 at 72 h [2] of 42.2 µM.

Compound `COc1ccc(COc2nc(N)nc3[nH]cnc23)cc1` has an IC50 [1] of 5.39 µM and an IC50 at 72 h [2] of 4.2 µM.

`Nc1nc(OCc2ccc(Br)cc2)c2[nH]cnc2n1` gave an IC50 [1] of 0.256 µM and an IC50 at 72 h [2] of 4.8 µM.

`Nc1nc(OCc2cccc(C(F)(F)F)c2)c2nc[nH]c2n1` showed an IC50 [1] of 0.634 µM and an IC50 at 72 h [2] of 16 µM.

`Nc1nc(OCc2cc(OCc3ccccc3)cc(OCc3ccccc3)c2)c2nc[nH]c2n1` gave an IC50 [1] of 11.1 µM and an IC50 at 72 h [2] of 38.5 µM.

For `COC(=O)Cn1cnc2c(OCc3cccc(Cl)c3Cl)nc(N)nc21`, the IC50 [1] was 0.829 µM and the IC50 at 72 h [2] was over 50 µM.

`COc1cc(COc2nc(N)nc3[nH]cnc23)ccc1OCc1ccccc1` showed an IC50 [1] of 11.1 µM and an IC50 at 72 h [2] of 11.2 µM.

Compound `Nc1nc(OCc2cccc3ccccc23)c2nc[nH]c2n1` has an IC50 [1] of 5.79 µM and an IC50 at 72 h [2] of 33 µM.

`Nc1nc(OCc2ccccc2-c2ccccc2)c2nc[nH]c2n1` showed an IC50 [1] of 8.03 µM and an IC50 at 72 h [2] of 28.9 µM.

`CCOC(=O)CCCn1cnc2c(OCc3cccc(OC)c3)nc(N)nc21` gave an IC50 [1] of 19.1 µM and an IC50 at 72 h [2] of over 50 µM.

`CCOC(=O)Cn1cnc2c(OCc3cccc(Oc4ccccc4)c3)nc(N)nc21` gave an IC50 [1] of over 50 µM and an IC50 at 72 h [2] of over 50 µM.

Compound `Nc1nc(OCc2cccc(Cl)c2)c2nc[nH]c2n1` has an IC50 [1] of 0.179 µM and an IC50 at 72 h [2] of 4 µM.

`Nc1nc(OCCCc2ccccc2)c2nc[nH]c2n1` gave an IC50 [1] of 3.63 µM and an IC50 at 72 h [2] of 35.6 µM.

Work on `Nc1nc(OCc2ccccc2Cl)c2nc[nH]c2n1` yielded an IC50 [1] of 0.148 µM and an IC50 at 72 h [2] of 5.6 µM.

For `CCCCOc1nc(N)nc2[nH]cnc12`, the IC50 [1] was 18.3 µM and the IC50 at 72 h [2] was over 50 µM.

For `Nc1nc(OCc2ccc(CNC(=O)C(F)(F)F)cc2)c2nc[nH]c2n1`, the IC50 [1] was 0.148 µM, the Activity ([2]; hcc, 72 h) was “Non-toxic” and the Activity [4] was “Active”. For the same compound, the Activity [5] was “Active”, the Activity [6] was “Active” and the inhibition [3] was “Active”. For the same compound, the inhibition [7] was “Active”.

`Nc1nc(OCc2ccccc2)c2[nH]cnc2n1` [6-O-BENZYLGUANINE] showed an IC50 [1] of 0.0914 µM and an IC50 at 72 h [2] of 8.5 µM.

Compound `Nc1nc(OCc2cccc(Br)c2)c2nc[nH]c2n1` has an IC50 [1] of 0.64 µM and an IC50 at 72 h [2] of 11.3 µM.

`COc1cccc(COc2nc(N)nc3[nH]cnc23)c1` showed an IC50 [1] of 13.5 µM and an IC50 at 72 h [2] of 6.6 µM.

`Cc1ccc(COc2nc(N)nc3nc[nH]c23)cc1` showed an IC50 [1] of 0.293 µM and an IC50 at 72 h [2] of 6.1 µM.

Work on `COc1cccc(COc2nc(N)nc3c2ncn3Cc2ccccc2)c1` yielded an IC50 [1] of 1.46 µM and an IC50 at 72 h [2] of over 50 µM.

In the case of `Nc1nc(OCc2cccc(F)c2)c2nc[nH]c2n1`, the IC50 [1] is reported as 34.5 µM and the IC50 at 72 h [2] is reported as 3.3 µM.

`Cc1cccc(COc2nc(N)nc3nc[nH]c23)c1` showed an IC50 [1] of 0.208 µM and an IC50 at 72 h [2] of 5.5 µM.

`COc1cc(COc2nc(N)nc3[nH]cnc23)cc(OC)c1OC` gave an IC50 [1] of 7.85 µM and an IC50 at 72 h [2] of over 50 µM.

`CCOC(=O)Cn1cnc2c(OCc3cccc(OC)c3)nc(N)nc21` showed an IC50 [1] of 21.7 µM and an IC50 at 72 h [2] of over 50 µM.

Compound `Nc1nc(OCC2CCCCC2)c2nc[nH]c2n1` has an IC50 [1] of 5.69 µM and an IC50 at 72 h [2] of 29.6 µM.

In the case of `Nc1nc(OCc2cccc(Cl)c2Cl)c2nc[nH]c2n1`, the IC50 [1] is reported as over 50 µM and the IC50 at 72 h [2] is reported as 13.3 µM.

For `CSc1ccc(COc2nc(N)nc3[nH]cnc23)cc1`, the IC50 [1] was 0.829 µM and the IC50 at 72 h [2] was 6.9 µM.

Compound `Nc1nc(OCc2cc(F)ccc2F)c2nc[nH]c2n1` has an IC50 [1] of 0.36 µM and an IC50 at 72 h [2] of 16.6 µM.

Compound `Nc1nc(OCc2cccc(Oc3ccccc3)c2)c2nc[nH]c2n1` has an IC50 [1] of over 50 µM and an IC50 at 72 h [2] of 34.3 µM.

With `COCOc1cccc(COc2nc(N)nc3[nH]cnc23)c1` the IC50 [1] was 0.508 µM and the IC50 at 72 h [2] was 7.6 µM.

Work on `Nc1nc(OCc2cc(F)ccc2Br)c2nc[nH]c2n1` yielded an IC50 [1] of 1.65 µM and an IC50 at 72 h [2] of 22.2 µM.

`COc1cccc(Oc2nc(N)nc3[nH]cnc23)c1` gave an IC50 [1] of 28.2 µM and an IC50 at 72 h [2] of over 50 µM.

In the case of `COCOc1ccc(COc2nc(N)nc3[nH]cnc23)cc1OC`, the IC50 [1] is reported as 0.519 µM and the IC50 at 72 h [2] is reported as over 50 µM.

For `CCOC(=O)Cn1cnc2c(OCc3cccc(Cl)c3Cl)nc(N)nc21`, the IC50 [1] was over 50 µM and the IC50 at 72 h [2] was over 50 µM.

`CC(=O)NCc1ccc(COc2nc(N)nc3[nH]cnc23)cc1` gave an IC50 [1] of 0.125 µM and an IC50 at 72 h [2] of 5.3 µM.
